Here are results for 29 compounds from patent US8865698B2, “Method of treatment using substituted pyrazolo[1,5-a]pyrimidine compounds” (Array BioPharma Inc., priority 2008, dated 2014).

Structures can show the parent of a compound that is named as a salt.

histidine-tagged recombinant human TrkA, cytoplasmic domain, sequence (P04629 440-796): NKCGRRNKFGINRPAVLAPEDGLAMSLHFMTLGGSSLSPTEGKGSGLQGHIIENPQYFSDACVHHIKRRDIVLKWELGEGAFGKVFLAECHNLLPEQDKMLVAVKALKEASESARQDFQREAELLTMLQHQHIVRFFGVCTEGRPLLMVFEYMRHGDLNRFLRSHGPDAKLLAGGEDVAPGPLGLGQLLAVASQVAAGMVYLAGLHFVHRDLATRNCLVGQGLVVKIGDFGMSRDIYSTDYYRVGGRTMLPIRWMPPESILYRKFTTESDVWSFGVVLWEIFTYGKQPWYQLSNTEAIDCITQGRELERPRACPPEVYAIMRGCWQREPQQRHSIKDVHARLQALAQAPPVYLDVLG

The test concerns the target histidine-tagged recombinant human TrkA, cytoplasmic domain (Homo sapiens (Human), UniProt P04629). In words: TrkA ELISA Assay. The test is classed as biochemical. Particulars: 2.5 nM TrkA, 500 μM ATP, 25 minutes; read-out: TrkA Elisa Enzyme IC50. The procedure: An enzyme-linked immunosorbant assay (ELISA) was used to assess TrkA kinase activity in the presence of inhibitors. Immulon 4HBX 384-well microtiter plates (Thermo part #8755) were coated with a 0.025 mg/mL solution of poly (Glu, Ala, Tyr; 6:3:1; Sigma P3899). Various concentrations of test compound, 2.5 nM TrkA (Invitrogen Corp., histidine-tagged recombinant human TrkA, cytoplasmic domain), and 500 μM ATP were incubated for 25 minutes at ambient temperature in the coated plates while shaking. The assay buffer consisted of 25 mM MOPS pH 7.5, 0.005% (v/v) Triton X-100 and 5 mM MgCl2. The reaction mixture was removed from the plate by washing with PBS containing 0.1% (v/v) Tween 20. The phosphorylated reaction product was detected using 0.2 μg/mL of a phosphotyrosine specific monoclonal antibody (clone PY20) conjugated to horseradish peroxidase in conjunction with the TMB Peroxidase Substrate System (KPL). After the addition of 1M phosphoric acid, the chromogenic substrate color intensity was quantitated via absorbance at 450 nm. IC50 values were calculated using either a 4 or 5-parameter logistic curve fit.
Background: In an ELISA, binding on a coated surface is turned into a signal by an enzyme label.
A word on the IC50: it is the concentration needed to halve the response being measured. `O=C(Nc1cnn2ccc(N3CCC[C@@H]3c3cccc(F)c3)nc12)N1CC(O)C1` [Example 32, (R)—N-(5-(2-(3-fluorophenyl)pyrrolidin-1-yl)pyrazolo[1,5-a]pyrimidin-3-yl)-3-hydroxyazetidine-1-carboxamide]: the IC50 came out at 116 nM.

For `COC(=O)C1(C(=O)Nc2cnn3ccc(N4CCC[C@@H]4c4cc(F)ccc4F)nc23)CC1` [Example 33, (R)-methyl 1-(5-(2-(2,5-difluorophenyl)pyrrolidin-1-yl)pyrazolo[1,5-a]pyrimidin-3-ylcarbamoyl)cyclopropanecarboxylate], the IC50 came to 4.7 nM.

For the compound `O=C(O)C1(C(=O)Nc2cnn3ccc(N4CCC[C@@H]4c4cc(F)ccc4F)nc23)CC1` [Example 34, (R)-1-(5-(2-(2,5-difluorophenyl)pyrrolidin-1-yl)pyrazolo[1,5-a]pyrimidin-3-ylcarbamoyl)cyclopropanecarboxylic acid], the IC50 was found to be 98.2 nM.

Turning to `O=C(Nc1cnn2ccc(N3CCC[C@@H]3c3cc(F)cc(Cl)c3)nc12)N1CC[C@H](O)C1` [Example 35, (S)—N-(5-((R)-2-(3-chloro-5-fluorophenyl)pyrrolidin-1-yl)pyrazolo[1,5-a]pyrimidin-3-yl)-3-hydroxypyrrolidine-1-carboxamide], the concentration for half-maximal inhibition (IC50) worked out at 20.2 nM.

As to `O=C(Nc1cnn2ccc(N3CCC[C@@H]3c3cc(F)ccc3C(F)F)nc12)N1CC[C@@H](O)C1` [Example 36, (R)—N-(5-((R)-2-(2-(difluoromethyl)-5-fluorophenyl)pyrrolidin-1-yl)pyrazolo[1,5-a]pyrimidin-3-yl)-3-hydroxypyrrolidine-1-carboxamide], the concentration for half-maximal inhibition (IC50) was determined as 18 nM.

`O=C(Nc1cnn2ccc(N3CCC[C@@H]3c3cc(F)ccc3C(F)F)nc12)N1CC[C@H](O)C1` [Example 37, (S)—N-(5-((R)-2-(2-(difluoromethyl)-5-fluorophenyl)pyrrolidin-1-yl)pyrazolo[1,5-a]pyrimidin-3-yl)-3-hydroxypyrrolidine-1-carboxamide]: the IC50 was 8.7 nM.

`O=C(Nc1cnn2ccc(N3CCC[C@@H]3c3cc(F)ccc3C(F)F)nc12)N1CCC(O)CC1` [Example 38, (R)—N-(5-(2-(2-(difluoromethyl)-5-fluorophenyl)pyrrolidin-1-yl)pyrazolo[1,5-a]pyrimidin-3-yl)-4-hydroxypiperidine-1-carboxamide]: the IC50 was 85.5 nM.

In the case of `O=C(Nc1cnn2ccc(N3CCC[C@@H]3c3cc(F)ccc3C(F)F)nc12)N1CCC[C@@H](O)C1` [Example 39, (R)—N-(5-((R)-2-(2-(difluoromethyl)-5-fluorophenyl)pyrrolidin-1-yl)pyrazolo[1,5-a]pyrimidin-3-yl)-3-hydroxypiperidine-1-carboxamide], the IC50 was 25.7 nM.

Turning to `O=C(Nc1cnn2ccc(N3CCC[C@@H]3c3cc(F)ccc3C(F)F)nc12)N1CCC[C@H](O)C1` [Example 40, (S)—N-(5-((R)-2-(2-(difluoromethyl)-5-fluorophenyl)pyrrolidin-1-yl)pyrazolo[1,5-a]pyrimidin-3-yl)-3-hydroxypiperidine-1-carboxamide], the IC50 came out at 30.8 nM.

With `O=C(Nc1cnn2ccc(N3CCC[C@@H]3c3cc(F)ccc3Cl)nc12)N1CC[C@@H](O)C1` [Example 41, (R)—N-(5-((R)-2-(2-chloro-5-fluorophenyl)pyrrolidin-1-yl)pyrazolo[1,5-a]pyrimidin-3-yl)-3-hydroxypyrrolidine-1-carboxamide], the concentration for half-maximal inhibition (IC50) worked out at 4.1 nM.

With `O=C(Nc1cnn2ccc(N3CCC[C@@H]3c3cc(F)ccc3Cl)nc12)N1CCC(O)CC1` [Example 42, (R)—N-(5-(2-(2-chloro-5-fluorophenyl)pyrrolidin-1-yl)pyrazolo[1,5-a]pyrimidin-3-yl)-4-hydroxypiperidine-1-carboxamide], the IC50 came to 28.3 nM.

As to `O=C(Nc1cnn2ccc(N3CCC[C@@H]3c3cc(F)ccc3Cl)nc12)N1CCC[C@@H](O)C1` [Example 43, (R)—N-(5-((R)-2-(2-chloro-5-fluorophenyl)pyrrolidin-1-yl)pyrazolo[1,5-a]pyrimidin-3-yl)-3-hydroxypiperidine-1-carboxamide], the IC50 was determined as 11.7 nM.

For the compound `O=C(Nc1cnn2ccc(N3CCC[C@@H]3c3cc(F)ccc3Cl)nc12)N1CCC[C@H](O)C1` [Example 44, (S)—N-(5-((R)-2-(2-chloro-5-fluorophenyl)pyrrolidin-1-yl)pyrazolo[1,5-a]pyrimidin-3-yl)-3-hydroxypiperidine-1-carboxamide], the 50% inhibitory concentration (IC50) was found to be 13.4 nM.

Consider `CC(C)(C)C(=O)Nc1cnn2ccc(N3CCC[C@@H]3c3cc(F)ccc3F)nc12` [Example 45, (R)—N-(5-(2-(2,5-difluorophenyl)pyrrolidin-1-yl)pyrazolo[1,5-a]pyrimidin-3-yl)pivalamide], for which the concentration for half-maximal inhibition (IC50) worked out at 6.3 nM.

As to `CC(C)(C)OC(=O)N1CC(C(=O)Nc2cnn3ccc(N4CCC[C@@H]4c4cc(F)ccc4Cl)nc23)C1` [Example 46, (R)-tert-butyl 3-(5-(2-(2-chloro-5-fluorophenyl)pyrrolidin-1-yl)pyrazolo[1,5-a]pyrimidin-3-ylcarbamoyl)azetidine-1-carboxylate], the half-maximal inhibitory concentration (IC50) worked out at 37.3 nM.

For the compound `O=C(Nc1cnn2ccc(N3CCC[C@@H]3c3cc(F)ccc3Cl)nc12)C1CNC1` [Example 47, (R)—N-(5-(2-(2-chloro-5-fluorophenyl)pyrrolidin-1-yl)pyrazolo[1,5-a]pyrimidin-3-yl)azetidine-3-carboxamide trifluoroacetate], the IC50 worked out at 190 nM.

Regarding `CC(C)(C)OC(=O)N1CCC(C)(C(=O)Nc2cnn3ccc(N4CCC[C@@H]4c4cc(F)ccc4Cl)nc23)CC1` [Example 48, (R)-tert-butyl 4-(5-(2-(2-chloro-5-fluorophenyl)pyrrolidin-1-yl)pyrazolo[1,5-a]pyrimidin-3-ylcarbamoyl)-4-methylpiperidine-1-carboxylate], the IC50 turned out to be 15.3 nM.

`CC1(C(=O)Nc2cnn3ccc(N4CCC[C@@H]4c4cc(F)ccc4Cl)nc23)CCNCC1` [Example 49, (R)—N-(5-(2-(2-chloro-5-fluorophenyl)pyrrolidin-1-yl)pyrazolo[1,5-a]pyrimidin-3-yl)-4-methylpiperidine-4-carboxamide hydrochloride]: the IC50 is 29.2 nM.

Turning to `CC(C)(O)C(=O)Nc1cnn2ccc(N3CCC[C@@H]3c3cc(F)ccc3F)nc12` [Example 50, (R)—N-(5-(2-(2,5-difluorophenyl)pyrrolidin-1-yl)pyrazolo[1,5-a]pyrimidin-3-yl)-2-hydroxy-2-methylpropanamide], the IC50 is 12.4 nM.

Take `O=C(Nc1cnn2ccc(N3CCC[C@@H]3c3cc(F)ccc3F)nc12)C1(C(F)(F)F)CC1` [Example 51, (R)—N-(5-(2-(2,5-difluorophenyl)pyrrolidin-1-yl)pyrazolo[1,5-a]pyrimidin-3-yl)-1-(trifluoromethyl)cyclopropanecarboxamide]: the IC50 is 5.2 nM.

As to `N#CC1(C(=O)Nc2cnn3ccc(N4CCC[C@@H]4c4cc(F)ccc4F)nc23)CC1` [Example 52, (R)-1-cyano-N-(5-(2-(2,5-difluorophenyl)pyrrolidin-1-yl)pyrazolo[1,5-a]pyrimidin-3-yl)cyclopropanecarboxamide], the 50% inhibitory concentration (IC50) was found to be 4.2 nM.

Regarding `C[C@]1(C(=O)Nc2cnn3ccc(N4CCC[C@@H]4c4cc(F)ccc4F)nc23)CCCN1` [Example 53, (R)—N-(5-((R)-2-(2,5-difluorophenyl)pyrrolidin-1-yl)pyrazolo[1,5-a]pyrimidin-3-yl)-2-methylpyrrolidine-2-carboxamide], the IC50 is 31 nM.

Turning to `CC(C)(F)C(=O)Nc1cnn2ccc(N3CCC[C@@H]3c3cc(F)ccc3F)nc12` [Example 54, (R)—N-(5-(2-(2,5-difluorophenyl)pyrrolidin-1-yl)pyrazolo[1,5-a]pyrimidin-3-yl)-2-fluoro-2-methylpropanamide], the half-maximal inhibitory concentration (IC50) amounted to 14.2 nM.

As for `CC(C)Nc1nc(C(=O)Nc2cnn3ccc(N4CCC[C@@H]4c4cc(F)ccc4F)nc23)cs1` [Example 55, (R)—N-(5-(2-(2,5-difluorophenyl)pyrrolidin-1-yl)pyrazolo[1,5-a]pyrimidin-3-yl)-2-(isopropylamino)thiazole-4-carboxamide], the IC50 came to 3.1 nM.

Regarding `CC(C)(C(=O)Nc1cnn2ccc(N3CCC[C@@H]3c3cc(F)ccc3F)nc12)n1cncn1` [Example 56, (R)—N-(5-(2-(2,5-difluorophenyl)pyrrolidin-1-yl)pyrazolo[1,5-a]pyrimidin-3-yl)-2-methyl-2-(1H-1,2,4-triazol-1-yl)propanamide], the IC50 was found to be 14.4 nM.

Regarding `Cc1cnc(C(=O)Nc2cnn3ccc(N4CCC[C@@H]4c4cc(F)ccc4F)nc23)cn1` [Example 58, (R)—N-(5-(2-(2,5-difluorophenyl)pyrrolidin-1-yl)pyrazolo[1,5-a]pyrimidin-3-yl)-5-methylpyrazine-2-carboxamide], the IC50 was determined as 3.1 nM.

Regarding `O=C(Nc1cnn2ccc(N3CCC[C@@H]3c3cc(F)ccc3F)nc12)c1ccccn1` [Example 59, (R)—N-(5-(2-(2,5-difluorophenyl)pyrrolidin-1-yl)pyrazolo[1,5-a]pyrimidin-3-yl)picolinamide], the IC50 stood at 1.7 nM.

As to `Cc1cccc(C(=O)Nc2cnn3ccc(N4CCC[C@@H]4c4cc(F)ccc4F)nc23)n1` [Example 60, (R)—N-(5-(2-(2,5-difluorophenyl)pyrrolidin-1-yl)pyrazolo[1,5-a]pyrimidin-3-yl)-6-methylpicolinamide], the IC50 was 4.2 nM.

With `O=C(Nc1cnn2ccc(N3CCC[C@@H]3c3cc(F)ccc3F)nc12)c1ccc(Cl)cn1` [Example 61, (R)-5-chloro-N-(5-(2-(2,5-difluorophenyl)pyrrolidin-1-yl)pyrazolo[1,5-a]pyrimidin-3-yl)picolinamide], the IC50 was determined as 4 nM.
